Measurements from ChEMBL document CHEMBL1255419, “Pharmacokinetic-pharmacodynamic assessment of faropenem in a lethal murine Bacillus anthracis inhalation postexposure prophylaxis model” (Antimicrob Agents Chemother, 2010).
In brackets after ≈: the same amount, converted by molar mass. Activity calls are given as the source filed them. No cut-off for these calls is given here.

Tests used:
[1] = system: Bacillus anthracis; assay: microbe, parasite or virus in culture; format: functional
[2] = system: Bacillus anthracis; assay: microbe, parasite or virus in culture; format: functional; remark: listed apart in the source
[3] = system: Bacillus anthracis; assay: microbe, parasite or virus in culture; format: functional; remark: listed apart in the source
[4] = system: Bacillus anthracis; assay: microbe, parasite or virus in culture; format: functional; remark: listed apart in the source
[5] = system: Bacillus anthracis; assay: microbe, parasite or virus in culture; format: functional; remark: listed apart in the source
[6] = system: Bacillus anthracis; assay: microbe, parasite or virus in culture; format: functional; remark: listed apart in the source
[7] = system: Bacillus anthracis; assay: microbe, parasite or virus in culture; format: functional; remark: listed apart in the source
[8] = system: Bacillus anthracis; assay: microbe, parasite or virus in culture; format: functional; remark: listed apart in the source
[9] = system: Bacillus anthracis; assay: microbe, parasite or virus in culture; format: functional; remark: listed apart in the source
[10] = system: Bacillus anthracis; assay: microbe, parasite or virus in culture; format: functional; remark: listed apart in the source
[11] = system: Bacillus anthracis; assay: microbe, parasite or virus in culture; format: functional; remark: listed apart in the source
[12] = system: Bacillus anthracis; assay: microbe, parasite or virus in culture; format: functional; remark: listed apart in the source
[13] = system: Bacillus anthracis; assay: microbe, parasite or virus in culture; format: functional; remark: listed apart in the source
[14] = system: Bacillus anthracis; assay: microbe, parasite or virus in culture; format: functional; remark: listed apart in the source
[15] = system: Bacillus anthracis; assay: microbe, parasite or virus in culture; format: functional; remark: listed apart in the source
[16] = system: Bacillus anthracis; assay: microbe, parasite or virus in culture; format: functional; remark: listed apart in the source
[17] = system: Bacillus anthracis; assay: microbe, parasite or virus in culture; format: functional; remark: listed apart in the source
[18] = system: Bacillus anthracis; assay: microbe, parasite or virus in culture; format: functional; remark: listed apart in the source
[19] = system: Bacillus anthracis; assay: microbe, parasite or virus in culture; format: functional; remark: listed apart in the source
[20] = system: Bacillus anthracis; assay: microbe, parasite or virus in culture; format: functional; remark: listed apart in the source
[21] = system: Bacillus anthracis; assay: microbe, parasite or virus in culture; format: functional; remark: listed apart in the source
[22] = system: Bacillus anthracis; assay: Antibacterial activity against beta-lactamase Bla1 and Bla2-producing Bacillus anthracis Sterne by broth microdilution method; format: functional
[23] = system: Bacillus anthracis; assay: microbe, parasite or virus in culture; format: functional; remark: listed apart in the source
[24] = system: Bacillus anthracis; assay: microbe, parasite or virus in culture; format: functional; remark: listed apart in the source
[25] = system: Bacillus anthracis; assay: microbe, parasite or virus in culture; format: functional; remark: listed apart in the source
[26] = system: Bacillus anthracis; assay: microbe, parasite or virus in culture; format: functional; remark: listed apart in the source
[27] = system: Bacillus anthracis; assay: microbe, parasite or virus in culture; format: functional; remark: listed apart in the source
[28] = system: Bacillus anthracis; assay: microbe, parasite or virus in culture; format: functional; remark: listed apart in the source
[29] = system: Bacillus anthracis; assay: microbe, parasite or virus in culture; format: functional; remark: listed apart in the source
[30] = system: Bacillus anthracis; settings: Ames, 30 mg/kg
[31] = system: Bacillus anthracis; assay: animal or person; settings: Ames, in Mus musculus, ip

Row | Compound | MIC [1] [µg/mL] | MIC [2] [µg/mL] | MIC [3] [µg/mL] | MIC [4] [µg/mL] | MIC [5] [µg/mL] | MIC [6] [µg/mL] | MIC [7] [µg/mL] | MIC [8] [µg/mL] | MIC [9] [µg/mL] | MIC [10] [µg/mL] | MIC [11] [µg/mL] | MIC [12] [µg/mL] | MIC [13] [µg/mL] | MIC [14] [µg/mL] | MIC [15] [µg/mL] | MIC [17] [µg/mL] | MIC [18] [µg/mL] | MIC [19] [µg/mL] | MIC [20] [µg/mL] | MIC [21] [µg/mL] | further results
1 | CN(C)[C@@H]1C(O)=C(C(N)=O)C(=O)[C@@]2(O)C(O)=C3C(=O)c4c(O)cccc4[C@@](C)(O)[C@H]3C[C@@H]12 [TETRACYCLINE] | ≤ 0.06 | ≤ 0.06 | ≤ 0.06 | ≤ 0.06 | ≤ 0.06 | ≤ 0.06 | ≤ 0.06 | ≤ 0.06 | ≤ 0.06 | ≤ 0.06 | ≤ 0.06 | ≤ 0.06 | ≤ 0.06 | ≤ 0.06 | ≤ 0.06 | ≤ 0.06 | ≤ 0.06 | ≤ 0.06 | ≤ 0.06 | ≤ 0.06 | MIC [16]: ≤ 0.06 µg/mL; MIC [22]: ≤ 0.06 µg/mL; MIC [23]: ≤ 0.06 µg/mL; MIC [24]: ≤ 0.06 µg/mL; MIC [25]: ≤ 0.06 µg/mL; MIC [26]: ≤ 0.06 µg/mL; MIC [27]: ≤ 0.06 µg/mL; MIC [28]: ≤ 0.06 µg/mL; MIC [29]: ≤ 0.06 µg/mL
2 | CC[C@H]1OC(=O)[C@H](C)[C@@H](O[C@H]2C[C@@](C)(OC)[C@@H](O)[C@H](C)O2)[C@H](C)[C@@H](O[C@@H]2O[C@H](C)C[C@H](N(C)C)[C@H]2O)[C@](C)(O)C[C@@H](C)CN(C)[C@H](C)[C@@H](O)[C@]1(C)O [AZITHROMYCIN] | 4 (≈ 5.34 µM) | 4 (≈ 5.34 µM) | 4 (≈ 5.34 µM) | 4 (≈ 5.34 µM) | 4 (≈ 5.34 µM) | 2 (≈ 2.67 µM) | 4 (≈ 5.34 µM) | 2 (≈ 2.67 µM) | 1 (≈ 1.34 µM) | 4 (≈ 5.34 µM) | 2 (≈ 2.67 µM) | 4 (≈ 5.34 µM) | 4 (≈ 5.34 µM) | 4 (≈ 5.34 µM) | 4 (≈ 5.34 µM) | 4 (≈ 5.34 µM) | 2 (≈ 2.67 µM) | 2 (≈ 2.67 µM) | 4 (≈ 5.34 µM) | 4 (≈ 5.34 µM) | MIC [16]: 4 µg/mL (≈ 5.34 µM); MIC [22]: 2 µg/mL (≈ 2.67 µM); MIC [23]: 2 µg/mL (≈ 2.67 µM); MIC [24]: 4 µg/mL (≈ 5.34 µM); MIC [25]: 4 µg/mL (≈ 5.34 µM); MIC [26]: 4 µg/mL (≈ 5.34 µM); MIC [27]: 2 µg/mL (≈ 2.67 µM); MIC [28]: 4 µg/mL (≈ 5.34 µM); MIC [29]: 2 µg/mL (≈ 2.67 µM)
3 | C[C@H]1c2cccc(O)c2C(=O)C2=C(O)[C@]3(O)C(=O)C(C(N)=O)=C(O)[C@@H](N(C)C)[C@@H]3[C@@H](O)[C@@H]21.O [DOXYCYCLINE] | ≤ 0.06 | ≤ 0.06 | ≤ 0.06 | ≤ 0.06 | ≤ 0.06 | ≤ 0.06 | ≤ 0.06 | ≤ 0.06 | ≤ 0.06 | ≤ 0.06 | ≤ 0.06 | ≤ 0.06 | 0.25 | ≤ 0.06 | ≤ 0.06 | ≤ 0.06 | ≤ 0.06 | ≤ 0.06 | ≤ 0.06 | ≤ 0.06 | MIC [16]: ≤ 0.06 µg/mL; MIC [22]: ≤ 0.06 µg/mL; MIC [23]: ≤ 0.06 µg/mL; MIC [24]: ≤ 0.06 µg/mL; MIC [25]: ≤ 0.06 µg/mL; MIC [26]: ≤ 0.06 µg/mL; MIC [27]: ≤ 0.06 µg/mL; MIC [28]: ≤ 0.06 µg/mL; MIC [29]: ≤ 0.06 µg/mL
4 | CC1(C)S[C@@H]2[C@H](NC(=O)Cc3ccccc3)C(=O)N2[C@H]1C(=O)O [PENICILLIN G] | 4 (≈ 12 µM) | 2 (≈ 5.98 µM) | 2 (≈ 5.98 µM) | 1 (≈ 2.99 µM) | 2 (≈ 5.98 µM) | 1 (≈ 2.99 µM) | 2 (≈ 5.98 µM) | 4 (≈ 12 µM) | 1 (≈ 2.99 µM) | 2 (≈ 5.98 µM) | 4 (≈ 12 µM) | 1 (≈ 2.99 µM) | 2 (≈ 5.98 µM) | 1 (≈ 2.99 µM) | 8 (≈ 23.9 µM) | 4 (≈ 12 µM) | 4 (≈ 12 µM) | 8 (≈ 23.9 µM) | 2 (≈ 5.98 µM) | 1 (≈ 2.99 µM) | MIC [16]: 2 µg/mL (≈ 5.98 µM); MIC [22]: 4 µg/mL (≈ 12 µM); MIC [23]: 2 µg/mL (≈ 5.98 µM); MIC [24]: 1 µg/mL (≈ 2.99 µM); MIC [25]: 2 µg/mL (≈ 5.98 µM); MIC [26]: 2 µg/mL (≈ 5.98 µM); MIC [27]: 8 µg/mL (≈ 23.9 µM); MIC [28]: 32 µg/mL (≈ 95.7 µM); MIC [29]: 4 µg/mL (≈ 12 µM)
5 | C[C@@H](O)[C@H]1C(=O)N2C(C(=O)O)=C(S[C@@H]3CN[C@H](C(=O)N(C)C)C3)[C@H](C)[C@H]12 [MEROPENEM] | 0.25 (≈ 0.652 µM) | 0.25 (≈ 0.652 µM) | 8 (≈ 20.9 µM) | 0.25 (≈ 0.652 µM) | 0.12 (≈ 0.313 µM) | < 0.06 | 0.12 (≈ 0.313 µM) | 0.12 (≈ 0.313 µM) | ≤ 0.06 | 0.12 (≈ 0.313 µM) | 0.06 (≈ 0.156 µM) | 0.12 (≈ 0.313 µM) | 0.25 (≈ 0.652 µM) | 0.12 (≈ 0.313 µM) | 0.25 (≈ 0.652 µM) | 0.12 (≈ 0.313 µM) | 0.25 (≈ 0.652 µM) | 0.12 (≈ 0.313 µM) | 0.12 (≈ 0.313 µM) | 0.12 (≈ 0.313 µM) | MIC [16]: 0.12 µg/mL (≈ 0.313 µM); MIC [22]: ≤ 0.06 µg/mL; MIC [23]: 0.5 µg/mL (≈ 1.3 µM); MIC [24]: 0.12 µg/mL (≈ 0.313 µM); MIC [25]: 0.25 µg/mL (≈ 0.652 µM); MIC [26]: 0.12 µg/mL (≈ 0.313 µM); MIC [27]: 4 µg/mL (≈ 10.4 µM); MIC [28]: 32 µg/mL (≈ 83.4 µM); MIC [29]: 0.12 µg/mL (≈ 0.313 µM)
6 | O=C(O)c1cn(C2CC2)c2cc(N3CCNCC3)c(F)cc2c1=O [CIPROFLOXACIN] | 0.25 (≈ 0.754 µM) | 1 (≈ 3.02 µM) | ≤ 0.06 | 0.12 (≈ 0.362 µM) | ≤ 0.06 | ≤ 0.06 | ≤ 0.06 | ≤ 0.06 | 0.25 (≈ 0.754 µM) | 0.12 (≈ 0.362 µM) | ≤ 0.06 | 0.12 (≈ 0.362 µM) | 0.25 (≈ 0.754 µM) | 0.12 (≈ 0.362 µM) | ≤ 0.06 | ≤ 0.06 | 0.12 (≈ 0.362 µM) | ≤ 0.06 | ≤ 0.06 | 0.12 (≈ 0.362 µM) | inhibition [30]: Active; survival at 60 mg/kg [31]: 90%; MIC [22]: ≤ 0.06 µg/mL; MIC [23]: ≤ 0.06 µg/mL; MIC [24]: 0.12 µg/mL (≈ 0.362 µM); MIC [25]: 0.12 µg/mL (≈ 0.362 µM); MIC [26]: ≤ 0.06 µg/mL; MIC [27]: ≤ 0.06 µg/mL; MIC [28]: ≤ 0.06 µg/mL; MIC [29]: 0.12 µg/mL (≈ 0.362 µM)
